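Each compound was tested at five concentrations against cells in 96-well plates for 48 hours. TGI: concentration producing complete growth inhibition.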
Columns and labels:
Assay in all cases: NCI anticancer screen, dose series, 48 h
MOLT-4 leukemia = tested on: MOLT-4 leukemia
SNB-75 CNS = tested on: SNB-75 CNS
HOP-62 NSCLC = tested on: HOP-62 NSCLC
T-47D breast = tested on: T-47D breast
U251 CNS = tested on: U251 CNS
PC-3 prostate = tested on: PC-3 prostate
OVCAR-3 ovarian = tested on: OVCAR-3 ovarian
RXF 393 renal = tested on: RXF 393 renal
SK-OV-3 ovarian = tested on: SK-OV-3 ovarian
K-562 leukemia = tested on: K-562 leukemia
OVCAR-5 ovarian = tested on: OVCAR-5 ovarian
HCT-15 colon = tested on: HCT-15 colon
SNB-19 CNS = tested on: SNB-19 CNS
OVCAR-8 ovarian = tested on: OVCAR-8 ovarian
HOP-92 NSCLC = tested on: HOP-92 NSCLC
LOX IMVI melanoma = tested on: LOX IMVI melanoma
RPMI-8226 leukemia = tested on: RPMI-8226 leukemia
SF-295 CNS = tested on: SF-295 CNS
A498 renal = tested on: A498 renal
SF-539 CNS = tested on: SF-539 CNS

Row | Compound | TGI (MOLT-4 leukemia) | TGI (SNB-75 CNS) | TGI (HOP-62 NSCLC) | TGI (T-47D breast) | TGI (U251 CNS) | TGI (PC-3 prostate) | TGI (OVCAR-3 ovarian) | TGI (RXF 393 renal) | TGI (SK-OV-3 ovarian) | TGI (K-562 leukemia) | TGI (OVCAR-5 ovarian) | TGI (HCT-15 colon) | TGI (SNB-19 CNS) | TGI (OVCAR-8 ovarian) | TGI (HOP-92 NSCLC) | TGI (LOX IMVI melanoma) | TGI (RPMI-8226 leukemia) | TGI (SF-295 CNS) | TGI (A498 renal) | TGI (SF-539 CNS)
1 | CN(C)C(=O)C1CCN(Cc2c[nH]c3ccccc23)CC1 | > 100 µM | > 100 µM | > 100 µM | > 100 µM | > 100 µM | > 100 µM | > 100 µM | > 100 µM | > 100 µM | > 100 µM | > 100 µM | > 100 µM | > 100 µM | > 100 µM | > 100 µM | > 100 µM | > 100 µM | > 100 µM | > 100 µM | –
2 | CC(=O)Oc1c(C)c2c(c3ccccc13)OC(C)(C)C2 | 37.1 µM | 33.1 µM | 34.5 µM | 60 µM | 33.4 µM | 47.2 µM | 52 µM | 35.9 µM | 66.3 µM | > 100 µM | 34.4 µM | 30.6 µM | 69.7 µM | 32.5 µM | 31.9 µM | – | 39.1 µM | 30.9 µM | 38.2 µM | 37.3 µM
3 | CC(NC(NC(C)C12CC3CC(CC(C3)C1)C2)=C(C(Cl)=C(Cl)Cl)[N+](=O)[O-])C12CC3CC(CC(C3)C1)C2 (stereo not given) | > 100 µM | > 100 µM | > 100 µM | > 100 µM | 12.6 µM | > 65.2 µM | 64.8 µM | 62.9 µM | > 100 µM | > 40 µM | > 100 µM | > 100 µM | > 100 µM | 7.41 µM | 17.3 µM | 21.5 µM | > 69.5 µM | > 100 µM | > 100 µM | 69 µM
4 | OC(c1ccccc1)C(F)(F)c1nc2ccccc2o1 (stereo not given) | > 100 µM | > 100 µM | > 100 µM | > 100 µM | > 100 µM | > 100 µM | – | > 100 µM | > 100 µM | 75.3 µM | – | > 100 µM | > 100 µM | > 100 µM | > 100 µM | > 100 µM | > 100 µM | > 100 µM | > 100 µM | > 100 µM
5 | COc1ccc2c(-c3ccc(O)cc3)c(Oc3ccc(Cl)cc3)c(=O)oc2c1 | > 29.9 µM | 33.8 µM | 44.2 µM | > 100 µM | 20.1 µM | 24.4 µM | 12.3 µM | 25 µM | 44.9 µM | > 57.8 µM | 21.4 µM | 17.6 µM | 24.2 µM | > 48.8 µM | 23.7 µM | > 44.9 µM | 20.8 µM | 23 µM | 22.5 µM | 28.8 µM
6 | O=[N+]([O-])c1cccc2nc3ccccc3c(NCCCN3CCCCC3)c12 | 0.0681 µM | 0.0497 µM | 0.0433 µM | 0.182 µM | 0.0734 µM | 0.0305 µM | 0.026 µM | 0.0246 µM | 0.1 µM | 1.12 µM | 0.0669 µM | 0.109 µM | 0.444 µM | 0.118 µM | 0.0434 µM | 0.0562 µM | 0.0611 µM | 0.0605 µM | < 0.0219 µM | 0.0451 µM
7 | COC1(CC[C@H](C)COC2OC(CO)C(O)C(O)C2O)O[C@H]2C[C@H]3[C@@H]4CC=C5C[C@@H](OC6OC(CO)C(O)C(OC7OC(CO)C(O)C(O)C7O)C6OC6OC(C)C(O)C(O)C6O)CC[C@]5(C)[C@H]4CC[C@]3(C)[C@H]2[C@@H]1C (stereo not given in full) | > 27.3 µM | 7.25 µM | 12.4 µM | 9.68 µM | 4.02 µM | 16.6 µM | 33.1 µM | 16.3 µM | 24.5 µM | > 47.9 µM | > 32.5 µM | 7.43 µM | 18.4 µM | 9.47 µM | 10.1 µM | 6.06 µM | 23.6 µM | 10.1 µM | 34.5 µM | 4.85 µM
8 | COc1cc(C23OCC(Cc4cc5c(cc42)OCO5)C3CO)cc(OC)c1OC (stereo not given) | > 100 µM | > 100 µM | > 100 µM | > 100 µM | 43.8 µM | > 100 µM | 5.8 µM | 8.03 µM | > 28.8 µM | > 100 µM | > 100 µM | > 100 µM | > 100 µM | > 100 µM | > 100 µM | 13.2 µM | > 100 µM | > 22.5 µM | > 100 µM | 26.2 µM
9 | O=C(CCOS(=O)(=O)CF)N1CCN(C(=O)CCOS(=O)(=O)CF)CC1 | 36.3 µM | > 56.7 µM | > 100 µM | > 100 µM | > 100 µM | > 100 µM | > 100 µM | > 100 µM | > 82.5 µM | > 100 µM | > 100 µM | > 100 µM | > 100 µM | > 100 µM | > 100 µM | > 100 µM | > 46.4 µM | > 46.4 µM | > 100 µM | > 100 µM
10 | CCC(=O)NCCc1c2c3c(ccnc3c3ncsc13)-c1ccccc1N2 | > 64.5 µM | > 88.3 µM | > 100 µM | > 100 µM | > 79.7 µM | > 100 µM | > 66.5 µM | > 100 µM | > 100 µM | > 100 µM | > 100 µM | > 100 µM | > 100 µM | > 71.1 µM | > 100 µM | > 82.6 µM | 19.8 µM | > 100 µM | > 100 µM | 7.52 µM
11 | CCN(CC)C(=S)SS(=O)(=O)c1ccccc1[N+](=O)[O-] | 26 µM | > 100 µM | > 65.8 µM | > 100 µM | > 56.2 µM | > 100 µM | 68 µM | 45.4 µM | > 100 µM | 50.4 µM | > 100 µM | > 100 µM | > 92.8 µM | > 56.9 µM | > 54.8 µM | > 57 µM | 40.9 µM | > 100 µM | > 100 µM | 34.1 µM
12 | O=C1C(Cl)C(c2cc3cc(Br)ccc3nc2Cl)N1c1c(Cl)cccc1Cl (stereo not given) | 11.4 µM | > 25 µM | > 25 µM | > 25 µM | – | > 25 µM | > 25 µM | > 25 µM | > 25 µM | 18 µM | > 25 µM | > 25 µM | > 25 µM | > 25 µM | > 25 µM | 7.96 µM | 23 µM | > 25 µM | > 25 µM | 10.7 µM
